Experimental findings from patent US8084469B2, “Substituted piperidines” (Bayer Pharma Aktiengesellschaft, priority 2009, dated 2011) are described below.

The test has as its target T1, human protease activated receptor 1 (PAR-1) (Homo sapiens, UniProt P25116).
T1 construct: the cell stably expresses the endogenous human PAR-1 receptor; endogenous in cells; host or cells: HEK293-derived recombinant cell line; only the aequorin reporter is recombinant
T1 sequence (P25116 22-425): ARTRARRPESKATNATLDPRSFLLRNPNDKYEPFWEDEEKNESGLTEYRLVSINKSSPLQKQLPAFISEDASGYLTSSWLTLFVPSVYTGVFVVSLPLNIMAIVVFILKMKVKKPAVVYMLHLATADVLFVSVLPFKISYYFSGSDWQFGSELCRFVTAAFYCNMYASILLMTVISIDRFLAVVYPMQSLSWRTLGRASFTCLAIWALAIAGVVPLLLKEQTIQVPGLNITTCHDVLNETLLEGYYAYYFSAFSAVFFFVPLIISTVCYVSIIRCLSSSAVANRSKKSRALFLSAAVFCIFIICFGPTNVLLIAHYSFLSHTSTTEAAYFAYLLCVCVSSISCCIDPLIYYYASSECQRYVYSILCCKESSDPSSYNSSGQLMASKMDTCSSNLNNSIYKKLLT
The test is described as follows: Cellular functional in vitro test (aequorin luminescence in recombinant HEK293 PAR-1 test cell). The class given is cell-based. Conditions: PAR-1 test cell (HEK293-derived), PAR-1 agonist at EC50 concentration, aequorin light signal. An excerpt: Cellular Functional In Vitro Test
A recombinant cell line is used to identify antagonists of the human protease activated receptor 1 (PAR-1) and to quantify the activity of the substances described herein. The cell is originally derived from a human embryonal kidney cell (HEK293; ATCC: American Type Culture Collection, Manassas, Va. 20108, USA). The test cell line constitutively expresses a modified form of the calcium-sensitive photoprotein aequorin which, after reconstitution with the cofactor coelenterazine, emits light when the free calcium concentration in the inner mitochondrial compartment is increased (Rizzuto R, Simpson A W, Brini M, Pozzan T.; Nature 1992, 358, 325-327). Additionally, the cell stably expresses the endogenous human PAR-1 receptor and the endogenous purinergic receptor P2Y2. The resulting PAR-1 test cell responds to stimulation of the endogenous PAR-1 or P2Y2 receptor with an intracellular release of calcium ions, which can be quantified through the resulting aequorin luminescence with a suitable luminometer (Milligan G, Marshall F, Rees S, Trends in Pharmacological Sciences 1996, 17, 235-237).
For the testing of the substance specificity, the effect thereof after activation of the endogenous PAR-1 receptor is compared with the effect after activation of the endogenous purinergic P2Y2 receptor which utilizes the same intracellular signal path.
Test procedure: The cells are plated out two days (48 h) before the test in culture medium (DMEM F12, supplemented with 10% FCS, 2 mM glutamine, 20 mM HEPES, 1.4 mM pyruvate, 0.1 mg/ml gentamycin, 0.15% Na bicarbonate; BioWhittaker Cat.# BE04-687Q; B-4800 Verviers, Belgium) in 384-well microtitre plates and kept in a cell incubator (96% atmospheric humidity, 5% v/v CO2, 37° C.). On the day of the test, the culture medium is replaced by a tyrode solution (in mM: 140 sodium chloride, 5 potassium chloride, 1 magnesium chloride, 2 calcium chloride, 20 glucose, 20 HEPES), which additionally contains the cofactor coelenterazine (25 μM) and glutathione (4 mM), and the microtitre plate is then incubated for a further 3-4 hours. The test substances are then pipetted onto the microtitre plate, and 5 minutes after the transfer of the test substances into the wells of the microtitre plate the plate is transferred into the luminometer, a PAR-1 agonist concentration which corresponds to EC50 is added and the resulting light signal is immediately measured in the luminometer. To distinguish an antagonist substance action from a toxic action, the endogenous purinergic receptor is immediately subsequently activated with agonist (ATP, final concentration 10 μM) and the resulting light signal is measured.

For `O=C(N1CCOCC1)N1CC(c2ccc(C(F)(F)F)cc2)CC(c2nc(NC3CC3)no2)C1` (racemic) [Example 9, {3-[3-(Cyclopropylamino)-1,2,4-oxadiazol-5-yl]-5-[4-(trifluoromethyl)phenyl]piperidin-1-yl}-(morpholin-4-yl)methanone], the IC50 (in general, the midpoint of a concentration-inhibition curve) worked out at 14.3 nM.

Turning to `CCN(CCO)c1noc(C2CC(c3ccc(C(F)(F)F)cc3)CN(C(=O)N3CCOCC3)C2)n1` (racemic) [Example 16, (3-{3-[Ethyl(2-hydroxyethyl)amino]-1,2,4-oxadiazol-5-yl}-5-[4-(trifluoromethyl)phenyl]piperidin-1-yl)(morpholin-4-yl)methanone], the IC50 worked out at 69.4 nM.

Turning to `CC(C)Oc1noc(C2CC(c3ccc(OC(F)(F)F)cc3)CN(C(=O)N3CCSCC3)C2)n1` (racemic) [Example 33, {3-(3-Isopropoxy-1,2,4-oxadiazol-5-yl)-5-[4-(trifluoromethoxy)phenyl]piperidin-1-yl}(thiomorpholin-4-yl)methanone], the IC50 is 1.7 nM.

Turning to `CCOc1noc(C2CC(c3ccc(CC)cc3)CN(C(=O)N3CC(O)C3)C2)n1` (racemic) [Example 35, [3-(3-Ethoxy-1,2,4-oxadiazol-5-yl)-5-(4-ethylphenyl)piperidin-1-yl](3-hydroxyazetidin-1-yl)methanone], the IC50 came out at 35.3 nM.

With `CCOc1noc(C2CC(c3ccc(CC(F)(F)F)cc3)CN(C(=O)N3CCS(=O)(=O)CC3)C2)n1` (racemic) [Example 67, (1,1-Dioxidothiomorpholin-4-yl){3-(3-ethoxy-1,2,4-oxadiazol-5-yl)-5-[4-(2,2,2-trifluoroethyl)-phenyl]piperidin-1-yl}methanone], the IC50 was 12 nM.

Regarding `CCOc1noc(C2CC(c3ccc(CC)c(F)c3)CN(C(=O)N3CCS(=O)(=O)CC3)C2)n1` (racemic) [Example 101, (1,1-Dioxidothiomorpholin-4-yl)[3-(3-ethoxy-1,2,4-oxadiazol-5-yl)-5-(4-ethyl-3-fluorophenyl)-piperidin-1-yl]methanone], the IC50 came out at 6.3 nM.

For `CCN(CC)c1noc(C2CC(c3ccc(C(F)(F)F)cc3)CN(C(=O)N3CCOCC3)C2)n1` (single isomer, unassigned) [Example 6, {3-[3-(Diethylamino)-1,2,4-oxadiazol-5-yl]-5-[4-(trifluoromethyl)phenyl]piperidin-1-yl}-(morpholin-4-yl)methanone], the IC50 came out at 8.7 nM.

Consider `CCc1ccc(C2CC(c3nc(OCCOC)no3)CN(C(=O)N3CCS(=O)(=O)CC3)C2)cc1` (single isomer, unassigned) [Example 63, (1,1-Dioxidothiomorpholin-4-yl){3-(4-ethylphenyl)-5-[3-(2-methoxyethoxy)-1,2,4-oxadiazol-5-yl]-piperidin-1-yl}methanone], for which the IC50 was determined as 20.6 nM.

`CCOc1noc(C2CC(c3ccc(CC(F)(F)F)cc3)CN(C(=O)N3CC[S+]([O-])CC3)C2)n1` (single isomer, unassigned) [Example 66, {3-(3-Ethoxy-1,2,4-oxadiazol-5-yl)-5-[4-(2,2,2-trifluoroethyl)phenyl]piperidin-1-yl}(1-oxidothio-morpholin-4-yl)methanone]: the IC50 is 64.5 nM.

As to `CCOc1noc(C2CC(c3ccc(CC(F)(F)F)cc3)CN(C(=O)N3CCS(=O)(=O)CC3)C2)n1` (single isomer, unassigned) [Example 69, (1,1-Dioxidothiomorpholin-4-yl){3-(3-ethoxy-1,2,4-oxadiazol-5-yl)-5-[4-(2,2,2-trifluoroethyl)-phenyl]piperidin-1-yl}methanone], the IC50 came out at 21.1 nM.

Turning to `CCOc1noc(C2CC(c3ccc(CC(F)(F)F)c(F)c3)CN(C(=O)N3CC[S+]([O-])CC3)C2)n1` (single isomer, unassigned) [Example 80, {3-(3-Ethoxy-1,2,4-oxadiazol-5-yl)-5-[3-fluoro-4-(2,2,2-trifluoroethyl)phenyl]piperidin-1-yl}(1-oxidothiomorpholin-4-yl)methanone], the IC50 turned out to be 5.1 nM.
